Laboratory results from patent US20050014682A1 (priority 2003, published 2005).
Read-outs that look alike come from different tables or passages of the source. Starred links: 1 amine or outer side, 2 acyl side, 3 side chain; linkers in the order of their positions; H or OH if unused. Positions of bridges follow the written chain, without caps; N, C: chain ends. Non-standard residues stand in square brackets, D forms with d. Residues, ends and D or L forms follow the SMILES beside them. Adda = CO[C@@H](Cc1ccccc1)[C@@H](C)/C=C(C)/C=C/[C@H](N[*:1])[C@H](C)C(=O)[*:2]; dAsp(3S-Me) = C[C@H](C(=O)[*:3])[C@@H](N[*:1])C(=O)[*:2]; d(γGlu) = O=C(O)[C@@H](CCC(=O)[*:2])N[*:1]; NMeDha = C=C(NC)C(=O)O

Legend:
Akt = assay: Cell-free in vitro assay (3T3-L1 adipocyte PM/CYT/LDM fractions), Akt phosphorylation by phospho-Akt immunoblot; assay type: biochemical; settings: for ability of phosphatidylinositol lipids to stimulate Thr308 and Ser473 phosphorylation of Akt: data not shown
PDK2 = PDK2 activity in in vitro reactions at different chloride concentrations; assay type: biochemical
[1] = 10 μM PIP3 added to CYT alone, non-insulin treated cells, 15 min at 37° C.
[2] = 10 μM PIP3 added to CYT and LDM, 15 min at 37° C.

With O[C@@H](CS)[C@@H](O)CS [DTT] the “signal for both Akt phosphorylation sites in reactions containing PM(+ins)” value (Akt; 15 min at 37° C.) was “appeared to inhibit the phospho-Akt signal in most cases”.
With C=C1C(=O)N[C@H](C)C(=O)N[C@@H](CC(C)C)C(=O)N[C@@H](C(=O)O)[C@H](C)C(=O)N[C@@H](CCCNC(=N)N)C(=O)N[C@@H](/C=C/C(C)=C/[C@H](C)[C@H](Cc2ccccc2)OC)[C@H](C)C(=O)N[C@@H](C(=O)O)CCC(=O)N1C [Microcystin, microcystin-LR] (R[Adda][d(γGlu)][NMeDha][dA]L[dAsp(3S-Me)]-OH; lactam N-7) the “control (basal) phospho-Akt signal in reactions containing PM(−ins)” value (Akt) was “elevated the basal signal only for the Ser473 site” and the “signal for both Akt phosphorylation sites in reactions containing PM(+ins)” value (Akt) was “increased the insulin-stimulated signal”.
With Cl [chloride] the “chloride concentration that completely inhibits PDK2 activity” value (PDK2) was over 100 mM, the “PIP3-induced Ser473 phosphorylation” value (Akt) was “completely inhibited” and the “insulin-stimulated phosphorylation of both Thr308 and Ser473” value (Akt; 145 mM chloride (140 mM KCl/5 mM NaCl or 145 mM NaCl), PM and CYT) was “almost completely suppressed”. For the same molecule, the “PIP3-stimulated Thr308 phosphorylation” value (Akt; high chloride (145 mM), 10 μM PIP3, PM(−ins) and CYT) was “severely inhibited”.
In the case of “phosphatidylinositol(3,4)P2 [PI (3,4)P2]”, the “ability of phosphatidylinositol lipids to stimulate Thr308 and Ser473 phosphorylation of Akt” value (Akt) is reported as “could stimulate”.
In the case of phosphatidylinositol(3,4,5)P3 [PIP3], the “Ser473 phosphorylation of Akt” value (Akt; [1]) is reported as “occurred only marginally”, the “Thr308 phosphorylation of Akt” value (Akt; [1]) is reported as “efficient phosphorylation” and the Ser473 signal (Akt; [2]) is reported as “robust”. For the same molecule, the “Thr308 signal relative to reaction containing CYT alone” value (Akt; [2]) was “not further enhanced” and the “ability of phosphatidylinositol lipids to stimulate Thr308 and Ser473 phosphorylation of Akt” value (Akt) was “could stimulate”.
